Measured values published in article PMC4861708 (Frontiers in Cell and Developmental Biology, 2016).
≈ marks a conversion by molar mass, not a printed value. Where a SMILES comes first, the peptide text is derived from it. [ ]: non-standard residue; d: D form. The star is where a group is joined. Orn(α-tetramethylguanidino) = CN(C)C(=N[C@@H](CCCN)C(=O)*)N(C)C; Orn = NCCC[C@H](N)C(=O)O

Assays:
P. aeruginosa DSM 9644 = type: cell-based, Pseudomonas aeruginosa; details: DSM 9644, 24 h
Method in brief: (§1)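 Broth microdilution MIC: P. aeruginosa strains in 50 or 100% MHB, K. pneumoniae in TSB; peptides 512–4 μg/mL final. Inoculum from 1.5 × 10^7 cells/mL suspension, also high density 5 × 10^8 cells/mL; 37°C, 24 h, growth read at OD595.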

HeLa cells [1] = type: cell-based; details: 24 h
Method: Human embryonic kidney (HEK293) and HeLa cells were cultured in Dulbecco's modified Eagle's/Ham's F-12 medium [DMEM/F-12 (1:1)] supplemented with FBS (10% v/v), penicillin, and streptomycin (1000 units each). Primary rat cardiomyocytes (Innoprot, Elexalde Derio, Spain) were grown in medium supplemented with FBS (20% v/v), horse serum (5% v/v), L-glutamine (2 mmol/L), sodium pyruvate (2 mmol/L), MEM non-essential amino acids (Gibco, 0.1 mmol/L), penicillin, and streptomycin (1000 units each). Surfaces for cardiomyocyte growth were coated with attachment factor first. Cells (20,000/well) were seeded into a 96-well plate (PS, sterile, flat bottom), incubated for 24 h (37°C, 5% CO2), and washed twice with PBS (100 μl/well) prior to adding colorless medium (88 μL) and peptide solution (12 μL; 5, 2.5, 1.25, […], and 0.625 g/L in PBS). Positive controls were triton X-100 (1%, v/v) and melittin (60 mg/L) as lytic peptide, whereas PBS (12%, v/v) served as negative control. After an incubation period of 24 h, supernatant (25 μL) was mixed with lactate dehydrogenase (LDH) substrate (175 μL; 0.57 mmol/L sodium pyruvate, 0.24 mmol/L NADH disodium salt, 32 mmol/L potassium dihydrogen phosphate, 66 mmol/L dipotassium phosphate) in 96-well plates (PS, sterile, flat bottom). Absorbance was recorded at 340 nm every 3 min for 30 min on the Paradigm microplate reader. […]

in vitro = type: cell-based; details: human
Method: Human embryonic kidney (HEK293) and HeLa cells were cultured in Dulbecco's modified Eagle's/Ham's F-12 medium [DMEM/F-12 (1:1)] supplemented with FBS (10% v/v), penicillin, and streptomycin (1000 units each). Primary rat cardiomyocytes (Innoprot, Elexalde Derio, Spain) were grown in medium supplemented with FBS (20% v/v), horse serum (5% v/v), L-glutamine (2 mmol/L), sodium pyruvate (2 mmol/L), MEM non-essential amino acids (Gibco, 0.1 mmol/L), penicillin, and streptomycin (1000 units each). Surfaces for cardiomyocyte growth were coated with attachment factor first. Cells (20,000/well) were seeded into a 96-well plate (PS, sterile, flat bottom), incubated for 24 h (37°C, 5% CO2), and washed twice with PBS (100 μl/well) prior to adding colorless medium (88 μL) and peptide solution (12 μL; 5, 2.5, 1.25, […], and 0.625 g/L in PBS). Positive controls were triton X-100 (1%, v/v) and melittin (60 mg/L) as lytic peptide, whereas PBS (12%, v/v) served as negative control. After an incubation period of 24 h, supernatant (25 μL) was mixed with lactate dehydrogenase (LDH) substrate (175 μL; 0.57 mmol/L sodium pyruvate, 0.24 mmol/L NADH disodium salt, 32 mmol/L potassium dihydrogen phosphate, 66 mmol/L dipotassium phosphate) in 96-well plates (PS, sterile, flat bottom). Absorbance was recorded at 340 nm every 3 min for 30 min on the Paradigm microplate reader. Due to the total release of LDH upon triton X-100 treatment, the control contained high LDH concentrations resulting in a fast substrate turnover that was only linear for the first 6 min.
The MTT cell viability assay relied on the same cell culture. Remaining medium was replaced by a mixture of fresh colorless medium (100 μL) and MTT (10 μL; 5 g/L in PBS) and incubated for 4 h (37°C, 5% CO2). A solution of sodium dodecyl sulfate (100 μL; 10%, w/v) dissolved in hydrochloric acid (10 mmol/L) was added, incubated (16 h), and the absorbance recorded at 590 nm relative to the reference at 650 nm (Paradigm microplate reader). The relative cell viability was calculated by [(ODPeptide − ODTriton)/(ODPBS − ODTriton)] × 100% and half-maximal inhibitory concentrations (IC50) with an Excel-template from cell biology protocols (www.sciencegateway.org/ protocols/cellbio/drug/hcic50.htm). For statistical analysis an unpaired t-test was applied using GraphPad Prism 5.0.

HEK293 cells = test system: HEK293 cells; parameters: method as in Berthold et al., 2013; Bluhm et al., 2015; details: ref Berthold et al., 2013, Bluhm et al., 2015; cited from earlier work
[2] = test system: P. aeruginosa DSM 3227 (ATCC 19429); type: cell-based, Pseudomonas aeruginosa; details: DSM 3227, 24 h
Method in brief: as §1

[3] = test system: Escherichia coli ATCC25922; parameters: method as in unpublished data; details: mouse infection models with E. coli ATCC25922, doses of only 0.6 mg/kg; ref unpublished data; cited from earlier work
[4] = test system: Primary rat cardiomyocytes; parameters: method as in Berthold et al., 2013; Bluhm et al., 2015; details: ref Berthold et al., 2013, Bluhm et al., 2015; cited from earlier work
[5] = parameters: method as in unpublished data; details: four intraperitoneal injections of 80 mg/kg per day; ref unpublished data; cited from earlier work
HeLa cells [6] = test system: HeLa cells; parameters: method as in Berthold et al., 2013; Bluhm et al., 2015; details: ref Berthold et al., 2013, Bluhm et al., 2015; cited from earlier work

In the case of `CC(C)C[C@H](NC(=O)[C@H](CCCNC(=N)N)NC(=O)[C@@H]1CCCN1C(=O)[C@H](Cc1c[nH]cn1)NC(=O)[C@@H]1CCCN1C(=O)[C@@H]1CCCN1C(=O)[C@H](CCCNC(=N)N)NC(=O)[C@@H]1CCCN1C(=O)[C@H](CCCNC(=N)N)NC(=O)[C@@H]1CCCN1C(=O)[C@H](CCCN)NC(=O)[C@H](Cc1ccc(O)cc1)NC(=O)[C@@H](NC(=O)[C@@H]1CCCN1C(=O)[C@H](CCCNC(=N)N)NC(=O)[C@H](CCCN)NC(=O)[C@H](Cc1c[nH]c2ccccc12)NC(=O)[C@H](CCCN)NC(=O)[C@H](Cc1c[nH]c2ccccc12)NC(=O)[C@H](CCCN)NC(=O)[C@H](Cc1c[nH]c2ccccc12)NC(=O)[C@H](CCCN)N=C(N(C)C)N(C)C)C(C)C)C(=O)O` [Api794, gu-O(WO)3RPVYOPRPRPPHPRL-OH] ({Orn(α-tetramethylguanidino)}-W[Orn]W[Orn]W[Orn]RPVY[Orn]PRPRPPHPRL-OH), the “MIC P. aeruginosa DSM 9644” value (P. aeruginosa DSM 9644) is reported as 16 µg/mL (≈ 5.4 µM) and the “EC50 of LDH release” value (HeLa cells [1]) is reported as 560 ± 160 µg/mL.
Work on `CC[C@H](C)[C@H](NC(=O)[C@H](CCCN)N=C(N(C)C)N(C)C)C(=O)N[C@@H](CCCN)C(=O)N[C@H](C(=O)N[C@@H](CCCN)C(=O)N[C@@H](CCCNC(=N)N)C(=O)N1CCC[C@H]1C(=O)N[C@H](C(=O)N[C@@H](Cc1ccc(O)cc1)C(=O)N[C@@H](CCCN)C(=O)N1CCC[C@H]1C(=O)N[C@@H](CCCNC(=N)N)C(=O)N1CCC[C@H]1C(=O)N[C@@H](CCCNC(=N)N)C(=O)N1CCC[C@H]1C(=O)N1CCC[C@H]1C(=O)N[C@@H](Cc1c[nH]cn1)C(=O)N1CCC[C@H]1C(=O)N[C@@H](CCCNC(=N)N)C(=O)N[C@@H](CC(C)C)C(=O)O)C(C)C)[C@@H](C)CC` [Api795, gu-O(IO)2RPVYOPRPRPPHPRL-OH] ({Orn(α-tetramethylguanidino)}-I[Orn]I[Orn]RPVY[Orn]PRPRPPHPRL-OH) yielded a viability at 24 h, 0.6 g/L (in vitro) of 78 ± 14%.
For `CC[C@H](C)[C@H](NC(=O)[C@H](Cc1ccc(O)cc1)NC(=O)[C@@H](NC(=O)[C@@H]1CCCN1C(=O)[C@H](CCCNC(=N)N)NC(=O)[C@H](CC(N)=O)NC(=O)[C@H](CC(N)=O)NC(=O)[C@H](CCCN)N=C(N(C)C)N(C)C)C(C)C)C(=O)N1CCC[C@H]1C(=O)N[C@@H](CCCNC(=N)N)C(=O)N1CCC[C@H]1C(=O)N[C@@H](CCCNC(=N)N)C(=O)N1CCC[C@H]1C(=O)N1CCC[C@H]1C(=O)N[C@@H](Cc1c[nH]cn1)C(=O)N1CCC[C@H]1C(=O)N[C@@H](CCCNC(=N)N)C(=O)N[C@@H](CC(C)C)C(=O)O` [Api137, gu-ONNRPVYIPRPRPPHPRL-OH, reference compound] ({Orn(α-tetramethylguanidino)}-NNRPVYIPRPRPPHPRL-OH), the “IC50 on cell viability” value (HEK293 cells) is given as greater than 600 µg/mL, the “MIC P. aeruginosa DSM 3227” value [2] is given as greater than 256 µg/mL and the survival rate [3] is given as 100%. For the same compound, the “IC50 on cell viability” value [4] was greater than 600 µg/mL, the “in vivo tolerance, acute toxic effects” value [5] was “no acute toxic effects” and the “IC50 on cell viability” value (HeLa cells [6]) was greater than 600 µg/mL.
